Experimental data published in patent publication US6262230A, “Analogs of thymosin α1” (SciClone Pharmaceuticals Inc., priority 1994, dated 2001).
Where “and” joins values, the source holds several entries; their conditions need not be identical. Identical values can stand only once.

Test system: endotoxic mice (lipopolysaccharide endotoxin from E. coli at 60 mg/kg)
Assay: Survival of endotoxic mice following lethal endotoxin dose
Format: in vivo, Swiss-Webster mice
Settings: endotoxin 60 mg/kg, 3 injections of 100 μg peptide at 5 minutes, 2 and 4 hours post endotoxin, alive at 0 hr: 10 (Tα1-N16-NH2 groups), 8 ([Glp]-Tα1, Tα1-Gly-NH2); for Number of Mice Alive Following Lethal Endotoxin Dose, 24 hr: endotoxin alone 4 of 10; for Number of Mice Alive Following Lethal Endotoxin Dose, 48 hr / Number of Mice Alive Following Lethal Endotoxin Dose, 72 hr / Number of Mice Alive Following Lethal Endotoxin Dose, 4 days / Number of Mice Alive Following Lethal Endotoxin Dose, 5 days: endotoxin alone 3 of 10
Method: Swiss-Webster mice were treated in five groups: endotoxic mice (mice injected with lipopolysaccharide endotoxin from E. coli at 60 mg/kg) which were otherwise untreated, and endotoxic mice treated with 3 injections of 100 μg Thymosin α1 -N16 Amide (Tα1 -N16 -NH2) treated in two groups, Pyroglutamyl-desacetyl Thymosin α1 ([glp]-Tα1), or Thymosin α1 -Gly Amide (Tα1 -gly-NH2) at 5 minutes, 2 and 4 hours post administration of the endotoxin.

Row | Substance | Number of Mice Alive Following Lethal Endotoxin Dose, 24 hr | Number of Mice Alive Following Lethal Endotoxin Dose, 48 hr | Number of Mice Alive Following Lethal Endotoxin Dose, 72 hr | Number of Mice Alive Following Lethal Endotoxin Dose, 4 days | Number of Mice Alive Following Lethal Endotoxin Dose, 5 days
1 | Ac-Ser-Asp-Ala-Ala-Val-Asp-Thr-Ser-Ser-Glu-Ile-Thr-Thr-Lys-Asp-Leu-Lys-Glu- Lys-Lys-Glu-Val-Val-Glu-Glu-Ala-Glu-Asn-Gly-NH2 (Ac-SDAAVDTSSEITTKDLKEKKEVVEEAENG-NH2) [Tα1 -Gly-NH2] | 8 | 8 | 8 | 8 | 8
2 | Ac-Ser-Asp-Ala-Ala-Val-Asp-Thr-Ser-Ser-Glu-Ile-Thr-Thr-Lys-Asp-Leu-NH2 (Ac-SDAAVDTSSEITTKDL-NH2) [Tα1 -N16 --NH2] | 5 and 8 | 4 and 8 | 4 and 7 | 4 and 7 | 4 and 7
